{"source": "patent US20260297060A1", "about": "“COMPOUNDS FOR THE DEGRADATION OF MUTANT BRAF” (C4 THERAPEUTICS, INC., priority 2023, published 2026)", "key": {"[1]": {"assay": "Human dose projections for Compound 26 (allometry, PBPK model), Example 15", "from_the_text": "The first-in-human dose projections for Compound 26 were made using prediction models. These models utilized experimentally determined physicochemical and ADME parameters relevant to Compound 26. The in vivo plasma clearance (Cl) and volume of distribution (Vdss) values obtained across different preclinical species (mouse, rat, dog and monkey) were scaled to predict human values using allometry. […] In addition, the human efficacious AUC (area under the concentration curve) was derived from a PKPD efficacy study in a tumor bearing mouse model. […] With these inputs a pharmacokinetic model (PBPK) was developed to project first in human BID dose. The oral bioavailability data for Compound 26 from preclinical species, mouse, rat, dog and monkey was simulated in the PBPK model for that species, to build confidence in the human PBPK model."}, "[2]": {"test_system": "A375 tumors", "assay": "In vivo efficacy, A375 xenograft tumor volume (Example 8)", "design": "species or system human A375 melanoma xenograft in female BALB/c nude mice", "settings": "oral, FIG. 22", "protocol": "FIG. 22 is a line graph showing in vivo efficacy of encorafenib, Compound 8, Compound 26, and Compound 38 in the treatment of female BALB/c nude mice bearing A375 tumors. Mice were treated with vehicle (10 μL/g, p.o., BID), encorafenib (35 mg/kg, p.o., QD), Compound 8 (10 mg/kg, p.o., BID), Compound 26 (10 mg/kg, p.o., BID), or Compound 38 (10 mg/kg, p.o., BID) by oral gavage (p.o.). Data points represent group mean change in tumor volume. Error bars represent standard error of the mean (SEM). The x-axis is the time measured in days and the y-axis is A375 tumor volume measured in mm^3. The experiment was conducted as described in Example 8."}, "[3]": {"target": "T1, human bile salt export pump (BSEP) efflux transporter (Homo sapiens, UniProt O95342)", "T1 construct": "purchased SOLVO Biotechnology Charles River Laboratories, Szeged, Hungary; host or cells: HEK293 (inside out membrane vesicles)", "T1 sequence (O95342 whole entry)": "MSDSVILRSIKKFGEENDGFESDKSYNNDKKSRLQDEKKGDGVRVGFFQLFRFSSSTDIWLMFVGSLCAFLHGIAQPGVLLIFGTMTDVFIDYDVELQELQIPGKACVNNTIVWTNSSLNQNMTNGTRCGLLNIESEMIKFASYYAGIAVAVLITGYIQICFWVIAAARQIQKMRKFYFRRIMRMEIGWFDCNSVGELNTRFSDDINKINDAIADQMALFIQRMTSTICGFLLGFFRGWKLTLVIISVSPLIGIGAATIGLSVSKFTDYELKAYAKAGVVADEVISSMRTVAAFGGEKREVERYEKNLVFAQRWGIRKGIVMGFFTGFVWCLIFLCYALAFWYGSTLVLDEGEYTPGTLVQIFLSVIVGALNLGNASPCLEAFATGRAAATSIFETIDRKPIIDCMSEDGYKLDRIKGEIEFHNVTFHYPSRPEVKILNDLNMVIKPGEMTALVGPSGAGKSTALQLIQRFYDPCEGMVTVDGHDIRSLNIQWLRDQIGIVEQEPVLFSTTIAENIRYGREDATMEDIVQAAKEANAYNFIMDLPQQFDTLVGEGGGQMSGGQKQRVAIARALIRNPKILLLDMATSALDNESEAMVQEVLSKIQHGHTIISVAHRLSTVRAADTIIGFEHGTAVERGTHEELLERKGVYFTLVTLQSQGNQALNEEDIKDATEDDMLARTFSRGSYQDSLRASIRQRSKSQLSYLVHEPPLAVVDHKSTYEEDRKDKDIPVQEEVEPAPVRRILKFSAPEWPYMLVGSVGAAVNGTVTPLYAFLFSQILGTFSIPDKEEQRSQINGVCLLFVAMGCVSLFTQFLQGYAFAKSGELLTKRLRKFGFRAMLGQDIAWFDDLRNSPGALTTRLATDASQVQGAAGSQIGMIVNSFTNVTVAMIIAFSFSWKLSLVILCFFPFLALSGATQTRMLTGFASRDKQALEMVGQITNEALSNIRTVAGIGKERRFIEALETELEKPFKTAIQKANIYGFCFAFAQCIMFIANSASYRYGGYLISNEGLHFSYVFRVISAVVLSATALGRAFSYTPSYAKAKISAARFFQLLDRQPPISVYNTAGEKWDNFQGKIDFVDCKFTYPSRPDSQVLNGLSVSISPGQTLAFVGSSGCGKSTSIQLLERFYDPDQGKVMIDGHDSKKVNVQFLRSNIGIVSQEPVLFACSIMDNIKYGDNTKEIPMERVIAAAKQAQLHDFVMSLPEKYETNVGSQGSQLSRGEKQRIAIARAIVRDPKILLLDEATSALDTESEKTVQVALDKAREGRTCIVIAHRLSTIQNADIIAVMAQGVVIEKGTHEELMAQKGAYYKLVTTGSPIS", "assay": "BSEP Vesicular Transport, one concentration inhibition assay", "format": "biochemical", "settings": "human BSEP (HEK293) vesicles, taurocholate 0.2 μM, 4 mM Mg-ATP, 2 replicates", "protocol": "The vesicular transport (VT) assays were performed using inside out membrane vesicles derived from HEK293 cells expressing the specified human bile salt export pump (BSEP) efflux transporter. The membrane vesicles were procured from SOLVO Biotechnology Charles River Laboratories, Szeged, Hungary.\nThe principle of the assay relies on measuring the accumulation of substrate into inside out vesicles containing the efflux transporter. By utilizing inside out vesicles, the ATP-dependent transport of substrate is directed into the vesicular lumen, where low permeability compounds are then essentially trapped.\nFor the 1 concentration inhibition assay, each compound was tested in the presence of ATP (active transport) in 2 replicates.\nThe solvent control (DMSO) was tested in the presence of ATP (active transport) and in the presence of AMP (background) in 8 replicates. […]\nThe samples were then be transferred to a filter plate and washed with 200 μL cold washing mix5-times to remove any free compounds or taurocholate probe substrate. The amount of taurocholate probe substrate inside the filtered vesicles were determined by liquid scintillation counting. […] The amount of taurocholate probe substrate inside the filtered vesicles were determined by liquid scintillation counting."}}, "data": [{"compound": "CCN(C)S(=O)(=O)Nc1ccc(F)c(Oc2ccc3ncn([C@H]4COC5(CCN(C6CC7(C6)CN(c6cc8c(cc6F)c(N6CCC(=O)NC6=O)nn8C)C7)CC5)C4)c(=O)c3c2)c1C#N", "note": "[Compound 26, (3R)-3-[6-[2-cyano-3-[[ethyl(methyl)sulfamoyl]amino]-6-fluoro-phenoxy]-4-oxo-quinazolin-3-yl]-8-[2-[3-(2,4-dioxohexahydropyrimidin-1-yl)-5-fluoro-1-methyl-indazol-6-yl]-2-azaspiro[3.3]heptan-6-yl]-1-oxa-8-azaspiro[4.5]decane]", "values": [{"measurement": "Human Vdss", "setting": "[1]; Table 86", "result": 0.50, "unit": "L/kg"}, {"measurement": "Human CL (PPB corrected plasma clearance)", "setting": "[1]; allometry from mouse, rat, dog and monkey", "result": 0.88, "unit": "mL/min/kg"}]}, {"compound": "CCN(C)S(=O)(=O)Nc1ccc(F)c(Oc2ccc3ncn(C4CC5(CCN(C6CCC(c7cc8c(cc7F)c(N7CCC(=O)NC7=O)nn8C)CC6)CC5)C4)c(=O)c3c2)c1C#N", "note": "(single isomer, unassigned) [Compound 8, 6-[2-cyano-3-[[ethyl(methyl)sulfamoyl]amino]-6-fluoro-phenoxy]-3-[7-[4-[3-(2,4-dioxohexahydropyrimidin-1-yl)-5-fluoro-1-methyl-indazol-6-yl]cyclohexyl]-7-azaspiro[3.5]nonan-2-yl]-4-oxo-quinazoline]", "values": [{"measurement": "tumor regressions in the xenograft model", "setting": "[2]; 10 mg/kg BID, A375 xenografts", "result": "profound tumor regressions"}, {"measurement": "antitumor response compared with comparators dabrafenib or encorafenib", "setting": "[2]; A375 human melanoma xenografts", "result": "more robust antitumor response"}]}, {"compound": "CCN(C)S(=O)(=O)Nc1ccc(F)c(Oc2ccc3ncn([C@H]4COC5(CCN(C6CC(c7cc8c(cc7F)c(N7CCC(=O)NC7=O)nn8C)C6)CC5)C4)c(=O)c3c2)c1C#N", "note": "(single isomer, unassigned) [Compound 70]", "values": [{"measurement": "BSEP Inhibition SD Inhibition %", "setting": "[3]", "result": 80, "unit": "%"}]}]}
